The subject of data set [1] is human peripheral blood lymphocytes (PBLs). The experiment in a line: Suppression of PBL proliferation in vitro (anti-CD3 X-35 stimulated, [3H] thymidine incorporation). Type of data set: cell-based. The settings on record: X-35 5 ng/ml; 72 hours; subglutinol between 1 and 20 μg/ml. The protocol:
One measure of immunosuppression is suppression of stimulated proliferation of peripheral blood lymphocytes (PBLs) in vitro. In the assay detailed in Example 5, PBLs were activated in vitro by addition of anti-CD3 monoclonal antibody (X-35 antibody). Subglutinol or vehicle (control) was added to each culture, at selected concentrations. After 72 hours incubation, tritiated thymidine was added to the culture medium, and incorporation of tritium into DNA was assayed as a measure of DNA synthesis associated with cell proliferation.
This example examines the ability of subglutinol to suppress the proliferation of human peripheral blood lymphocytes (PBLs) when stimulated with X-35 (AMAC #0178), an anti-CD3 surface antigen antibody. Human PBLs were prepared using an established method (Boyum). Human blood buffy coat samples, approximately 25 ml/donor, were obtained from the Stanford University Medical Center Blood Bank. […] The cell pellets were suspended in 10 ml of X-Vivo tissue culture medium (BioWhittakar, Walkersville, Md) and counted using a hemocytometer. […]
Plates were incubated at 37° C. in a 7% CO2 incubator for 72 hours. […] Samples were counted in a liquid scintillation counter (1205 Betaplate, Pharmacia LKB Biotechnology). […]
For orientation: Incorporation of labelled thymidine or its analogues reports DNA synthesis.

A short description of data set [2]: Evaluation of potential toxicity (MTT assay). The class given is cell-based. The settings on record: human, pbls, 21 hours plus 3 hours MTT. The protocol: Potential toxicity of the mixture was assessed by measurement the effect of subglutinol on the ability of cultured cells to reduce MTT (3-[4,5-Dimethylthiazol-2-yl]-2,5-diphenyltetrazolium bromide), an index of cellular respiration that is more sensitive in the detection of cytotoxicity than methods involving measurement of DNA replication (Green, 1984).
Potential cytotoxicities of test samples were assessed by measuring the effect of subglutinol on the reduction of MTT (3-[4,5-Dimethylthiazole-2-yl]-2,5-diphenyl-tetrazolium bromide) by cultured cells. MTT, a yellow-colored compound, is reduced by mitochondrial enzymes to form a purple crystalline reduction product, formazane, providing an index of cellular respiration as well as a sensitive assay for cytotoxicity (Green, 1984).
Cytotoxicity was assessed in cultured human PBLs. A stock solution of MTT (Sigma, St. Louis, Mo.), 5 mg/ml phosphate buffered saline, pH 7.4, was prepared and stored in the dark at 4° C. PBLs were cultured with various concentrations of test samples in flat-bottom 96 well tissue culture plate (Costar #3595) using the same conditions as in Example 5 above, except that X-35 was replaced with the appropriate medium.
Untreated cells in medium alone were used as controls in each experiment. Following 21 hours of incubation of cells, 25 μl of MTT solution was added to each well. After an additional three hour incubation, the experiment was terminated by adding a solution of 10% sodium dodecyl sulfate in 0.01 N HCl.
Following overnight incubation at 37° C. (to solubilize the formazane crystals), optical density was determined at 570-650 nm in a microplate reader (Thermo max, Molecular Devices, Calif.). Data are expressed as % cytotoxicity. Subglutinol concentrations of 0.03, 0.1, and 0.3 μg/ml gave % cytotoxicity values of 0, 20, and 28%, respectively.
(In general: Formazan colour is commonly taken as a measure of viable cells.)

The subject of data set [3] is proliferation of lymphocytes in a mixed lymphocyte reaction. As to the kind of experiment: Murine mixed lymphocyte reaction (MLR). The class given is cell-based, mouse. The settings on record: at 0.1 μg/ml; C57Bl/6 responder, irradiated Balb/C stimulator spleen cells; 4 days. As to the method: A measure of immunosuppression that serves as a model for transplantation rejection is inhibition of cell proliferation in a mixed lymphocyte reaction (MLR) assay (Bradley, in Mishell, 1980). In these experiments, an MLR is induced by co-incubating responder (R) cells from one mouse strain (C57B1/6) with stimulator (S) cells from another mouse strain (Balb/C).
The responder cells proliferate in the presence of the allogenic stimulator cells. The stimulator cells are irradiated so they are unable to proliferate. After 72 hours incubation, tritiated thymidine is added to the mixed cell cultures, and incorporation of the labeled nucleotide into DNA is assayed as an index of cell proliferation.
In the MLR test reported in Example 7, responder cells were co-cultured in microtitre wells with stimulator cells, in the presence of selected concentrations of subglutinol between 0.01 and 0.3 μg/ml. The wells receiving no subglutinol would be expected to be maximally stimulated. The cells were cultured for 4 days, and labeled with [^3 H] thymidine during the last 18 hours of incubation. […]
Several controls were conducted in the MLR assay. […] The spontaneous proliferation of R was also measured. […] Cells were harvested and counted as above. […]

Data set [4] relates to IL-1 action on mouse thymocytes. The experiment in a line: Inhibition of IL-1 action on mouse thymocytes (proliferation, [3H] thymidine incorporation). Conditions: at about 0.2 μg/ml; rIL-1β 0.08 ng/ml plus PHA 10 μg/ml; 72 hours; range 0.012 to 0.76 μg/ml. The class given is cell-based. As to the method:
The ability of subglutinol to suppress the cell-proliferative effect of IL-1 in mouse thymocytes as an index of IL-1 action (O'Gara, 1990) was also examined. In this study, mouse thymocytes in culture were stimulated with IL-1 in the presence of phytohemagglutinin and increasing concentrations of subglutinol. The cells were cultured for 72 hours, and during the last four hours, incubated with tritiated thymidine. […] Details are given in Example 6.
Mouse thymocytes were prepared, and the action of IL-1, which stimulates thymocyte proliferation, was measured using standard techniques (O'Gara, 1990). Three to six week old C3H/HeN male mice (Simonson Laboratory, Gilroy, Calif.) were sacrificed by CO2 inhalation. Thymi were removed, separated from adherent non-thymic tissue, homogenized in Hank's balanced salt solution (HBSS, Gibco) using a glass homogenizer, and centrifuged at 200×g for 10 minutes at 15° C. Following an additional wash in HBSS, the thymocytes were resuspended in RPMI 1640 medium (Gibco) containing 50 μM 2-mercaptoethanol, 2 mM glutamine, 1 mM sodium pyruvate, non-essential amino acids 100 U/ml penicillin, 100 μg/ml streptomycin and 10% heat-inactivated fetal bovine serum. […]
Subglutinol was added, 25 μl per well, to obtain final concentrations of subglutinol between 0.001 and 0.78 μg/ml. […] Cells were harvested and counted as above. […]

Data on 1 molecule can be found in patent US5648376A, “Immunosuppressant diterpene compound” (Pharmagenesis, Inc., priority 1995, dated 1997).

Each structure is given as a SMILES string.

As for `C=C1CCC2C3(C)CC(C=C(C)C)OC3CCC2(C)C1Cc1c(O)c(C)c(C)oc1=O` (stereo not drawn) [subglutinol], in data set [1], the “percent suppression of proliferation of anti-CD3 stimulated PBLs (FIG. 10)” value is recorded as “dose-dependent suppression”. Moreover, the cytotoxicity at 24 h in data set [2] (0.03 μg/ml) is 0%; in data set [2] (0.1 μg/ml), 20%; in data set [2] (0.3 μg/ml), 28%. The “percent inhibition of stimulation in MLR (FIG. 12)” value in data set [3] is reported as “Nearly complete inhibition”. In addition, in data set [4], the “inhibition of IL-1 action on thymocytes (FIG. 11)” value is listed as “Nearly complete inhibition”.
